A short description of the data set: Specific surface area by nitrogen adsorption gas sorption (BET method). Type of data set: physicochemical. The following applies: toltrazuril particles, outgased in vacuum at room temperature. On the procedure:
Specific surface area was measured by gas sorption system based on nitrogen adsorption, using Brunauer, Emmett and Teller (BET) method. Corresponding amount of sample was outgased in a vacuum at room temperature. After degasification the tube was weighed with sample and the analysis was proceeded.
Turning to `Cc1cc(-n2c(=O)[nH]c(=O)n(C)c2=O)ccc1Oc1ccc(SC(F)(F)F)cc1` [Example 5, toltrazuril], the Specific surface area stood at 19.5 m^2/g.
The figure for `Cc1cc(-n2c(=O)[nH]c(=O)n(C)c2=O)ccc1Oc1ccc(SC(F)(F)F)cc1` [Example 6, toltrazuril] is 18.8 m^2/g; for `Cc1cc(-n2c(=O)[nH]c(=O)n(C)c2=O)ccc1Oc1ccc(SC(F)(F)F)cc1` [Example 4, toltrazuril] it is 15.2 m^2/g; for `Cc1cc(-n2c(=O)[nH]c(=O)n(C)c2=O)ccc1Oc1ccc(SC(F)(F)F)cc1` [Example 2, toltrazuril] it is 15 m^2/g.
Then `Cc1cc(-n2c(=O)[nH]c(=O)n(C)c2=O)ccc1Oc1ccc(SC(F)(F)F)cc1` [Example 1, toltrazuril], with 13.8 m^2/g; and `Cc1cc(-n2c(=O)[nH]c(=O)n(C)c2=O)ccc1Oc1ccc(SC(F)(F)F)cc1` [Example 3, toltrazuril], with 13.8 m^2/g.
Turning to `Cc1cc(-n2c(=O)[nH]c(=O)n(C)c2=O)ccc1Oc1ccc(SC(F)(F)F)cc1` [micronized toltrazuril, toltrazuril], the Specific surface area is recorded as 14.1 m^2/g.

The record behind these values is EP2276347B1, “TOLTRAZURIL WITH IMPROVED DISSOLUTION PROPERTIES” (KRKA, tovarna zdravil, d.d., Novo mesto, priority 2008, dated 2009).
